Assay results taken from PMC6369240, “Biological evaluation and structure activity relationship of 9-methyl-1-phenyl-9H-pyrido[3,4-b]indole derivatives as anti-leishmanial agents” (Bioorganic Chemistry, 2019).

Legend:
[1] = HeLa cell cytotoxicity, Alamar blue assay; type: cell-based; conditions: human; HeLa cells, ~65 h incubation plus 5 h Alamar Blue
Procedure: HeLa cell cytotoxicity studies were carried out as described previously. Briefly, the cells were cultured in DMEM supplemented with 10% fetal calf serum and 2 mM L-glutamine. Cells were plated at initial cell concentration of 2 × 10^4 cells/well and incubated with the compounds for ∼65 h prior to addition of Alamar Blue solution for further 5 h.

[2] = tested on: L. infantum JPCM5 MCAN/ES/98/LLM-87 promastigotes; assay: L. infantum promastigote assay (Alamar blue); type: cell-based, Leishmania infantum; conditions: for S.I (CC50/IC50), L. infantum promastigote: HeLa CC50 / L. infantum promastigote EC50; for EC50: 72 h, Alamar blue
Procedure: (§1) Anti-leishmanial activity of these analogues was determined by evaluating their inhibition activity against both promastigote, amastigote forms of Leishmania infantum and Leishmania donovani strains. […] Anti-leishmanial drugs miltefosine and pentamidine were used as standards for comparison purpose.
Anti-promastigote activity of these reported β-carboline derivatives was determined by Alamar blue assay method.
(§2) L. donovanipromastigotes were cultured at 37 °C in M199 medium supplemented with 10% heat-inactivated fetal calf serum. L. infantum JPCM5 MCAN/ES/98/LLM-87 promastigotes were cultured at 26 °C in modified Eagle’s medium (HOMEM). Parasites were incubated with serial dilutions of compounds for 72 h, followed by Alamar blue-based assay as previously described.

[3] = tested on: L. infantum JPCM5 MCAN/ES/98/LLM-87 axenic amastigotes; assay: L. infantum axenic amastigote assay (Alamar blue); type: cell-based, Leishmania infantum; conditions: for S.I (CC50/IC50), L. infantum axenic amastigote: HeLa CC50 / L. infantum axenic amastigote EC50; for EC50: Leishmania infantum, 72 h, Alamar blue
Procedure: Alamar blue assay method was used to determine inhibition potential of these β-carboline derivatives against (human life stage forms) axenic amastigotes.
(§3) L. donovaniLdBOB axenic amastigotes or L. infantum JPCM5 MCAN/ES/98/LLM-87 were cultured at 37 °C in modified Eagle’s medium (HOMEM; L. infantum) and axenic amastigotes were incubated for 72 h with compounds, followed by Alamar blue-based assay as previously described.

[4] = tested on: L. donovani promastigotes; assay: L. donovani promastigote assay (Alamar blue); type: cell-based, Leishmania donovani; conditions: for S.I (CC50/IC50), L. donovani promastigote: HeLa CC50 / L. donovani promastigote EC50; for EC50: Leishmania donovani, 72 h, Alamar blue
Procedure: as §1
L. donovani promastigote inhibition potency of these reported β-carboline derivatives was determined by Alamar blue assay method.
as §2

[5] = tested on: L. donovani LdBOB axenic amastigotes; assay: L. donovani axenic amastigote assay (Alamar blue); type: cell-based, Leishmania donovani; conditions: for S.I (CC50/IC50), L. donovani axenic amastigote: HeLa CC50 / L. donovani axenic amastigote EC50; for EC50: 72 h, Alamar blue
Procedure: as §3

[6] = tested on: L. donovani LdBOB intracellular amastigotes in PMA differentiated THP-1 cells; assay: Intra macrophage L. donovani (amastigote) assay in THP-1 cells; type: cell-based, Leishmania donovani; conditions: for S.I (CC50/IC50), L. donovani intracellular amastigote: HeLa CC50 / L. donovani intracellular amastigote EC50; for EC50: THP-1 macrophages, 72 h, microscopy readout
Procedure: Although, axenic amastigotes assay most commonly used to screen new leishmanial agents are different from intracellular amastigotes in terms of protein expression and drug susceptibility. […] THP-1 (human monocytic leukemia) cells were a kind gift from Dr Susan Wylie (Dundee) and maintained in minimal essential medium plus 10% (vol/vol) FBS. […] Briefly, THP-1 cells (20,000 per well, 200 μL) were plated into 96 well plates in presence of 10 nM PMA and incubated at 37 °C in 5% CO2 atmosphere for 75 h. […] Any remaining extracellular amastigotes were removed and the adhered cells were washed with the same supplemented PBS solution as above. Pre-aliquoted compounds in a serial dilution were added from another plate, such that the total well volume was 200 μL and incubated for further 72 h. Cells were fixed with 100% methanol, stained with Giemsa and examined microscopically.

[7] = introduction statement; cited from earlier work
[8] = Leishmania donovani, THP-1, 72 h

Row | SMILES | EC50 ([2]; Leishmania infantum) | EC50 [3] | EC50 [4] | EC50 ([5]; Leishmania donovani) | EC50 [6, 8] | melting point | EC50 [6] | EC50 [5] | EC50 [2] | CC50 [1] | S.I (CC50/IC50), L. infantum promastigote [2] | S.I (CC50/IC50), L. infantum axenic amastigote [3] | S.I (CC50/IC50), L. donovani promastigote [4] | S.I (CC50/IC50), L. donovani axenic amastigote [5] | S.I (CC50/IC50), L. donovani intracellular amastigote [6] | half-life [7]
1 | Cn1c2ccccc2c2cc(C(=O)N3CCN(c4ccccc4)CC3)nc(-c3ccccc3)c21 [7a, (9-methyl-1-phenyl-9H-pyrido[3,4-b]indol-3-yl)(4-phenylpiperazin-1-yl)methanone] | 9.45 ± 0.82 µM | 4.5 ± 0.3 µM | 11.9 ± 1.2 µM | 10 ± 0.3 µM | 13.5 ± 2 µM | 232 to 234 °C |  |  |  | > 500 µM | >52.9 | >111.1 | >42.0 | 50.0 | 37.0 | 
2 | COc1ccc(N2CCN(C(=O)c3cc4c5ccccc5n(C)c4c(-c4ccccc4)n3)CC2)cc1 [7d, (4-(4-methoxyphenyl)piperazin-1-yl)(9-methyl-1-phenyl-9H-pyrido[3,4-b]indol-3-yl)methanone] |  | 1.4 ± 0.1 µM | 0.91 ± 0.09 µM | 0.91 µM | 1.4 µM | 170 to 172 °C | 1.3 ± 0.1 µM | 0.9 ± 0.1 µM |  | > 500 µM | >314.5 | >357.1 | >549.5 | 555.6 | 384.6 | 
3 | Cn1c2ccccc2c2cc(C(=O)N3CCN(c4ccc(Cl)cc4)CC3)nc(-c3ccccc3)c21 [7g, (4-(4-chlorophenyl)piperazin-1-yl)(9-methyl-1-phenyl-9H-pyrido[3,4-b]indol-3-yl)methanone] | 1.47 ± 0.32 µM | 1.9 ± 0.2 µM | 5.02 ± 0.36 µM | 3.8 ± 0.5 µM | 6.3 ± 0.3 µM | 160 to 162 °C |  |  |  | > 500 µM | >340.1 | >263.2 | >99.6 | 131.6 | 79.4 | 
4 | Cn1c2ccccc2c2cc(C(=O)N3CCN(c4ccc([N+](=O)[O-])cc4)CC3)nc(-c3ccccc3)c21 [7j, (9-methyl-1-phenyl-9H-pyrido[3,4-b]indol-3-yl)(4-(4-nitrophenyl)piperazin-1-yl)methanone] | 19.7 ± 1.7 µM | 14.6 ± 2.9 µM | 13.1 ± 1.5 µM | 7.5 ± 0.4 µM | 15.4 ± 0.9 µM | 200 to 202 °C |  |  |  | > 500 µM | >25.3 | >34.2 | >38.2 | 66.7 | 32.5 | 
5 | Cn1c2ccccc2c2cc(C(=O)N3CCN(c4ccc(F)cc4)CC3)nc(-c3ccccc3)c21 [7k, (4-(4-fluorophenyl)piperazin-1-yl)(9-methyl-1-phenyl-9H-pyrido[3,4-b]indol-3-yl)methanone] | 17.2 ± 0.82 µM | 15 ± 1.3 µM | 12.4 ± 1.4 µM | 9.3 ± 0.5 µM | 10.1 ± 1.1 µM | 188 to 190 °C |  |  |  | > 500 µM | >29.1 | >33.3 | >40.3 | 53.8 | 49.5 | 
6 | Cn1c2ccccc2c2cc(C(=O)N3CCN(c4ccncc4)CC3)nc(-c3ccccc3)c21 [7o, (9-methyl-1-phenyl-9H-pyrido[3,4-b]indol-3-yl)(4-(pyridin-4-yl)piperazin-1-yl)methanone] |  |  | 19.5 ± 2.8 µM | 13.9 ± 0.4 µM | 7.9 µM | 198 to 200 °C | 7.2 ± 0.5 µM |  |  | 29.7 ± 1.5 µM | 0.48 |  | 1.52 | 2.1 | 4.1 | 
7 | Cn1c2ccccc2c2cc(C(=O)N3CCN(c4ccccn4)CC3)nc(-c3ccccc3)c21 [7p, (9-methyl-1-phenyl-9H-pyrido[3,4-b]indol-3-yl)(4-(pyridin-2-yl)piperazin-1-yl)methanone] | 45.7 ± 3.3 µM |  | 8.5 ± 0.75 µM | 12.3 ± 0.6 µM | 9.4 µM | 174 to 176 °C | 7.9 ± 0.3 µM |  |  | 273 ± 21.6 µM | 5.97 |  |  | 22.2 | 34.6 | 
8 | N=C(N)c1ccc(OCCCCCOc2ccc(C(=N)N)cc2)cc1 [Pentamidine, reference compound] | 8.31 ± 0.18 µM | 2.7 ± 0.4 µM | 6.4 ± 0.11 µM | 1.6 ± 0.1 µM | 23.7 ± 1.8 µM |  |  |  |  |  |  |  |  |  |  | 

Now from value to compound, other results behind:

Row | EC50 ([2]; Leishmania infantum) | EC50 [3] | EC50 [4] | EC50 ([5]; Leishmania donovani) | EC50 [6, 8] | melting point | EC50 [6] | EC50 [5] | EC50 [2] | SMILES | CC50 [1] | S.I (CC50/IC50), L. infantum promastigote [2] | S.I (CC50/IC50), L. infantum axenic amastigote [3] | S.I (CC50/IC50), L. donovani promastigote [4] | S.I (CC50/IC50), L. donovani axenic amastigote [5] | S.I (CC50/IC50), L. donovani intracellular amastigote [6] | half-life [7]
9 | 3.73 ± 0.28 µM | 2.6 ± 0.2 µM | 9.45 ± 0.72 µM | 5.3 ± 0.4 µM | 7.8 µM | 148 to 150 °C | 9.4 ± 1.3 µM |  |  | Cc1ccccc1N1CCN(C(=O)c2cc3c4ccccc4n(C)c3c(-c3ccccc3)n2)CC1 [7c, (9-methyl-1-phenyl-9H-pyrido[3,4-b]indol-3-yl)(4-o-tolylpiperazin-1-yl)methanone] | > 500 µM | >134.0 | >192.3 | >52.9 | 94.3 | 53.2 | 
10 | 13.8 ± 0.9 µM | 15.3 ± 1.1 µM | 8.42 ± 0.45 µM | 6.4 ± 0.2 µM | 11.8 ± 0.7 µM | 168 to 170 °C |  |  |  | COc1ccccc1N1CCN(C(=O)c2cc3c4ccccc4n(C)c3c(-c3ccccc3)n2)CC1 [7f, (4-(2-methoxyphenyl)piperazin-1-yl)(9-methyl-1-phenyl-9H-pyrido[3,4-b]indol-3-yl)methanone] | > 500 µM | >36.2 | >32.7 | >59.4 | 78.1 | 42.4 | 
11 | 12.4 µM | 4.8 ± 0.8 µM | 3.12 ± 0.16 µM | 2.8 ± 0.4 µM | 6.4 ± 0.3 µM |  |  |  | 12.6 ± 1.1 µM | CCCCCCCCCCCCCCCCOP(=O)([O-])OCC[N+](C)(C)C [Miltefosine, reference compound] |  |  |  |  |  |  | 150 h
